Experiment [1] has as its target T1, Abl SH3 domain (Homo sapiens, UniProt P00519). Description: Tetracycline repressor-based mammalian two-hybrid assay. Type of experiment: cell-based. The conditions noted are these: HEK 293 cells, 48 hours post-transfection, fluorescence microscopy, Figure 2.
For experiment [2], the target named is T1, Abl SH3 domain. The conditions noted are these: computationally predicted from the human proteome; ref [30]; [31] (Personal communication); cited from earlier work.
The next experiment deals with Abl SH3 domain (SH3-His). Description: Abl SH3 domain Western blot-type detection. Type of experiment: binding, human. The settings on record: fluorescence under UV 365 nm, estimated, data not shown.
The target of another experiment is SH3-His (human, UniProt P00519 61-121). Description: fluorescence polarisation. (Fluorescence polarisation rises when a labelled molecule tumbles more slowly, as on binding a larger partner.)

No end group written: not given here.

The source of these data is publication PMC2914685 (Analytical biochemistry, 2010).

T1 sequence (P00519 61-121 limits assumed): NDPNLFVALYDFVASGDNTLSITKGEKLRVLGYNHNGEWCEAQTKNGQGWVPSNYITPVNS
Sequence of SH3-His (P00519 61-121): as the sequence (P00519 61-121 limits assumed) above

On to APAFPPPSPP [TOP1], for which, on Abl SH3 domain [1], the “interaction with Abl SH3 domain in vivo (AcGFP expression)” value was “positive interaction”. Moreover, on Abl SH3 domain [2], the “predicted binding to Abl SH3 domain” value was “binding peptide”.

With “MGAGAPAFPPPSPP@EF-(GFP)-His6 [TOP1-DOPA-GFP]”, the “lowest limit of detection of SH3-His” value in the experiment with Abl SH3 domain (SH3-His) is reported as “about 0.5 μg”.

Take AAAMQKPSLP [BOT1]: at Abl SH3 domain [2], the “predicted binding to Abl SH3 domain” value is “non-binding peptide”.

With “TetR-BOT1: TetR with dimerization domain replaced with BOT1 (AAAMQKPSLP; also: insert only, fused into TetR protein)”, the “interaction with Abl SH3 domain in vivo (AcGFP expression)” value in the experiment with Abl SH3 domain [1] is “does not bind to TetR-SH3”.

B1: TOP1-FITC (peptide)
peptide: APAFPPPSPP
modifications: also: FITC label, position not given here
In the experiment with SH3-His, B1 gave a Kd of 16 ± 1 µM.

For orientation: Kd means the free concentration of one partner at which half of the binding sites on the other are occupied at equilibrium, for simple one-to-one binding. Read a low Kd as tighter binding.
